Measured values from patent US12496302B2, “Compositions and methods for the treatment and diagnosis of cancer” (The General Hospital Corporation, priority 2020, dated 2025).
Entries after “also recorded” stand apart in the source; their conditions may differ.

Legend:
Type in all cases: cell-based
U2OS or MCF7 cells = assay: Cell survival of U2OS or MCF7 cells treated with YW-1842 alone
Experimental: FIGS. 6F-6G show TRDMT1 inhibitor YW-1842 delays the repair of DSBs at the transcribed genome. (FIG. 6F) U2OS or MCF7 cells were treated with or without compound YW-1842 at the indicated concentration. The survival rate of these cells was shown (n=3, Mean±SD). (FIG. 6G) SCE WT cells were transfected with TA-KR and were cultured with 2.5 μM YW-1842 or not for 6 hours, γ-H2AX (n=3, 50 cells per replicated, Mean±SD) were stained and quantified.
Approximately 500 U2OS/TRDMT1 KO U2OS/MCF-7/HCC1954/HCC1937 cells and TRDMT1 siRNA or GFP-TRDMT1 WT/G155V/K251R transfected cells were seeded in 6 cm dish with or without TRDMT1 inhibitors (2.5 μM/L). 6 hrs after seeding, cells were exposed to cisplatin (1134357, Sigma, 1 μM/L), ATMi (KU55933, C9867, Sigma, 10 μM/L), ATRi (AZ20, S7050, Selleck, 1 μM/L) or PARPi (Olaparib, AZD2461, Sigma, 1 μM/L) at indicated concentration or ionizing radiation (IR). After 7-14 days, colonies were fixed and stained with 0.3% crystal violet in methanol, and the number of colonies was counted manually.

[1] = system: cancer cell lines (HST578, MBAMD231, HCC1937, HCC1954); assay: Cell survival (colony) assay with TRDMT1i alone, Example 19
Experimental: FIGS. 14A-14C show TRDMT1i alone reduce cancer cell survival in a dose-dependent manner. (FIG. 14A) Survival rate of HR proficient (HR+) HST578 cancer cells with and without siBRCA1 and/or TRDMT1i YW-1842 at indicated dose. The survival rate of these cells was analyzed (n=3, Mean±SD). (FIG. 14B) Survival rate of MBAMD231 (HR+) and HCC1937 (HRD) cells. The survival rate of these cells was analyzed (n=3, Mean±SD). (FIG. 14C) Cell survival rate in different cancer cell lines via colony-forming assay with the treatment of Imatinib at indicated dose (n=3, mean+/−S.D.). Cell lines are listed in order with the expression level from SYCP2high to SYCP2low.
HCC1500, HCC1954, BT549, MCF7 and MDAMB468 were cultured in Roswell Park Memorial Institute (RPMI) 1640 Medium (Sigma, R8758) with 10% (vol/vol) fetal bovine serum (FBS, XY Cell Culture, FBS-500) at 37° C., 5% CO2. siBRCA1 (L-003461-00, Dharmacon) was transfected with Lipofectamine RNAiMax (Invitrogen; Carlsbad, CA, USA). PARPi Olaparib (AZD2281/Ku-0059436, Sellekchem, S1060) and Pol theta inhibitor Novobiocin (Sigma) were used.
Cells were seeded in each 6-cm dish and cultured as described above. They were treated with drugs with indicated dose in medium after seeding. After 7-10 days, colonies were fixed and stained with 0.3% crystal violet in methanol, and the number of colonies was counted manually.

TRDMT1 = target: T1, TRDMT1 (Homo sapiens, UniProt O14717); assay: m^5C staining at TA-KR DNA damage sites in cells treated with YW-1842
T1 construct: SCE WT cells were transfected with TA-KR and were cultured with 2.5 μM/L, compound YW-1842 or not for 6 hours; endogenous in cells; host or cells: SCE WT cells (U2OS-TRE type) transfected with TA-KR only
T1 sequence (O14717 1-391): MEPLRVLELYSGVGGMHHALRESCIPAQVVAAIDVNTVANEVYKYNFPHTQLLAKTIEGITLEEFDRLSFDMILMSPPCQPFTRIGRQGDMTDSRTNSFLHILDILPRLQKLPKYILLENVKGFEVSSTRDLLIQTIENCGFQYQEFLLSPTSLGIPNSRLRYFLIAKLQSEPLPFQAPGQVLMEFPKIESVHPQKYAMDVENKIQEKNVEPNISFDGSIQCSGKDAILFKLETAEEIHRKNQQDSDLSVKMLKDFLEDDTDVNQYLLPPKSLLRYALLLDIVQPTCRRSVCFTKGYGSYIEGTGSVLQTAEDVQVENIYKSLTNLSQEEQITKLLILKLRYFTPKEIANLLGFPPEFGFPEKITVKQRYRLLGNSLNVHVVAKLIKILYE
Experimental: FIGS. 6A-6E show TRDMT1 Inhibitors specifically sensitizes cells to DNA damage agents. (FIG. 6A) SCE WT cells were transfected with TA-KR and were cultured with 2.5 μM/L, compound YW-1842 or not for 6 hours, m^5C (n=3, 50 cells per replicated, Mean±SD) was stained and quantified. DR-GFP (FIG. 6B) or EJ5-GFP (FIG. 6C) cells were pre-treated with 2.5 μM/L, compound YW-1842 for 6 h or TRDMT1 siRNA for 48 h, or DMSO. Then the cells were transfected with NLS-I-SceI plasmid to induce DSB. The efficiency of HR (FIG. 6B) or NHEJ (FIG. 6C) was analyzed by flow-cytometry (n=3, Mean±SD). (FIG. 6D) After seeding, MCF-7, HCC1954, and HCC1937 cells were pre-treated with or without 2.5 μM/L compound YW-1842 for 6 h, then cultured with chemotherapy drugs (1 μM/L, Cisplatin; 1 μM/L ATRi AZ20; 10 μM/L, ATMi KU55933; 1 μM/L, PARPi Olaparib for 10 days. The survival rate of these cells was analyzed (n=3, Mean±SD). (FIG. 6E) TRDMT1 KO U2OS cells were transfected with GFP-TRDMT1^WT or GFP-TRDMT1^G155V with or without 2.5 μM/L, compound YW-1842, the survival rate of these cells after IR or Cisplatin was shown (n=3, Mean±SD).
The Olympus FV1000 confocal microscopy system (Cat. F10PRDMYR-1, Olympus) and FV1000 software were used for the acquisition of images. Cells were cultured in 35 mm glass-bottom dishes (MatTek, P35GC-1.5-14-C) before observation. Activation of KR in bulky cells was completed by exposing cells to a 15 W Sylvania cool white fluorescent bulb for 25 min in a stage UVP (Uvland, CA). The intensity was measured by ImageJ 1.52i software.
For m^5C staining using the heat method, the cells or tissues were fixed and permeabilized in a 35 mm glass-bottom dish using a standard protocol, incubated in buffer (10 mM Tris-HCl, 2 mM EDTA, pH=9) and steamed on a 95° C. heating block for 20 min to expose the antigen. The dish was cooled, washed 3 times with PBS and blocked using 5% BSA in 0.1% PBST for 0.5 h at room temperature. Primary antibody for m^5C (33D3, ab10805, Abcam) and secondary antibody were diluted in the same buffer (5% BSA in 0.1% PBST) and followed the standard IF protocol. […]

## COc1cc2nc(-n3cc(-c4ccc(S(C)(=O)=O)cc4)cn3)nc(-c3ccsc3)c2cc1OC [YW-1842, 6,7-dimethoxy-2-(4-(4-(methylsulfonyl)phenyl)-1H-pyrazol-1-yl)-4-(thiophen-3-yl)quinazoline]
U2OS or MCF7 cells; 2.5 μM/L
  cell killing by compound alone: does not kill cells alone
U2OS or MCF7 cells; concentration below 5 μM/L
  antiproliferative effect (cell proliferation): did not prohibit cell proliferation
[1]; HCC1954 (HRD, high SYCP2)
  cell killing of HCC1954: efficiently killed HCC1954
[1]; HR-proficient HST578 cells
  cell survival, TRDMT1i alone: kills HR-proficient cancer cells HST578 in a dose-dependent manner
[1]; HST578 cells with siBRCA1
  TRDMT1i sensitivity with BRCA1 knockdown: significantly increased
[1]; cell lines ordered SYCP2high to SYCP2low
  cell killing across cancer cell lines by SYCP2 level and HR status: killed SYCP2-high cancer cell lines and HR deficient cells the most efficiently
TRDMT1
  TRDMT1 inhibition (overall statement): potent inhibitor for TRDMT1; also recorded: high inhibitory activity
  inhibiting TRDMT1 recruitment, m^5C formation and HR efficiency at DNA damage sites: performed well
TRDMT1; 2.5 μM/L, 6 hours, cells transfected with TA-KR
  m^5C inhibitory activity: almost equivalent to TRDMT1 depletion
